Experiments:
[1] = test system: mature apple trees of the variety Jonagold, (mutant Jonagored); assay: Yield increase with apple (fruit set and fruit size after spraying); format: in vivo
Protocol: This experiment was performed on mature apple trees of the variety Jonagold, (mutant Jonagored). The sprayings were performed with an atomizer, each time applying an amount of 300 liter of water per hectare.
S-abscisic acid (ABA) was applied alone as well as in combination with glutamine. The applications were started around the end of flowering and were repeated every 10 to 14 days. ABA was first applied in two consecutive treatments, each time using a concentration of 3.3 ppm wt, and thus in a dosing of 1.0 g/ha. The composition with glutamine was applied until the end of the growing season, and with a concentration of 50 ppm wt, and thus in a dosing of 15 g/ha. ABA was also in this test applied only twice, on April 24 and May 7. The applications of glutamine were started around the end of flowering and were repeated every 7 to 14 days, depending on the weather conditions. In total there were 7 treatments, more precisely on April 24, May 7, May 14, May 20, June 9, June 16 and June 24. Immediately after the treatments, on June 25, also the average fruit diameter was determined.

winter wheat = assay: Yield increase with wheat (ear and grain parameters); format: in vivo
Protocol: This experiment was performed on winter wheat. ABA was applied to the winter wheat in two different doses, respectively 2 and 4 gram/hectare. The dose of 2 gram was repeated in combination with 5 g/ha of histidine.
The length of the ears (expressed in mm), the number of filled spikelets, the average number of grains counted per 50 ears, and as a quality parameter also the kernel weight of 1000 […] (“1000 kernel wt”) were determined.

CC1=CC(=O)CC(C)(C)[C@@]1(O)/C=C/C(C)=C/C(=O)O [ABA, S-abscisic acid]
Fruit diameter (mm) on June 25 ([1]; ABA 2 treatments at 1.0 g/ha, glutamine 7 treatments at 15 g/ha, measured June 25): 43.8 mm
Nr of fruits per cluster ([1]; ABA 2 treatments at 3.3 ppm wt (1.0 g/ha), glutamine 7 treatments at 50 ppm wt (15 g/ha), 300 l water/ha): 0.80
1000 kernel wt (gram) (winter wheat; ABA 2 g/ha): 43.6 gram
Ear Length (mm) (winter wheat; ABA 2 g/ha): 75 mm
Nr. filled spikelets (winter wheat; ABA 2 g/ha): 9.9
Nr. grains/50 ears (winter wheat; ABA 2 g/ha): 72.4
1000 kernel wt (gram) (winter wheat; ABA 4 g/ha): 44.8 gram
Ear Length (mm) (winter wheat; ABA 4 g/ha): 78 mm
Nr. filled spikelets (winter wheat; ABA 4 g/ha): 10.2
Nr. grains/50 ears (winter wheat; ABA 4 g/ha): 84.7

— patent US20130303373A1, “USE OF A COMPOSITION FOR THE INCREASE OF CROP YIELD” (GLOBACHEM, priority 2010, published 2013)
